Measured values as given in patent US20030149028A1, “Pesticidal compositions” (priority 2001, published 2003).

Assays:
Assay type in all cases: in vivo
[1] = tested on: rice leafhopper species Nephoteftix cincticeps; test: Method D: Nephotettix cinciceps Screen; conditions: concentration of 500 ppm or less; rice plants dipped, L3 larvae, after 6 days at 25° C.
Experimental: Method D: Nephotettix cinciceps Screen
The leaves of 12 rice plants having a stem length of 8 cm were dipped for 5 seconds into an aqueous solution of the formulated preparation to be examined. After the solution had run off, the rice plants treated in this manner were placed in a Petri dish and populated with about 20 larvae (L3 stage) of the rice leafhopper species Nephoteftix cincticeps. The Petri dish was closed and then stored in a climate chamber (16 hours of light/day, 25° C., 40-60% relative atmospheric humidity). After 6 days storage, the mortality among the leafhopper larvae was determined.

[2] = tested on: tick larvae (Rhipicephalus sanguineus); test: Method E: Rhipicephalus sanguineus Screen; conditions: concentration of 500 ppm or less, treated filter paper, after 24 hours at 25° C.
Experimental: Method E: Rhipicephalus sanguineus Screen A solution of the formulated preparation to be examined was dropped onto filter paper. After solvent evaporation the filter paper was infested with 20-30 tick larvae (Rhipicephalus sanguineus). After 24 hours storage at 25° C. the efficacy of the preparation was determined.

[3] = tested on: black bean aphids (Aphis fabae); test: Method B: Aphis fabae Screen; conditions: concentration of 500 ppm or less; added to water of field bean (Vicia faba) plants, effect on aphids after 3 and 6 days at 25° C.
Experimental: Method B: Aphis fabae Screen Germinated field bean seeds (Vicia faba) with roots were transferred into bottles filled with tap water and an aqueous solution of the formulated preparation to be examined (4 ml) was added. The plants were then infested with approximately 100 black bean aphids (Aphis fabae) and stored in a controlled-environment cabinet at 25° C. After 3 and 6 days storage, the effect of the preparation on the aphids was determined.

For `CC1=NN(c2c(Cl)cc(C(F)(F)F)cc2Cl)C(=O)C12SC1C=CC2C1` (stereo not drawn) [Compound 8, [1-(2,6-dichloro-4-trifluoromethylphenyl)-3-methylpyrazolin-5-one]-4-spiro-3′-(2′-thiabicyclo[2.2.1]hept-5′-ene)], the “control (mortality among the leafhopper larvae)” value [1] was “at least 50%”.
For `CC1=C(C)CC2(SC1)C(=O)N(c1c(Cl)cc(C(F)(F)F)cc1Cl)N=C2C#N` (stereo not drawn) [Compound 9, [1-(2,6-dichloro-4-trifluoromethylphenyl)-3-cyanopyrazolin-5-one]-4-spiro-2′-(4′,5′-dimethyl-2′H-3′,6′-dihydrothiane)], the “control (efficacy)” value [2] was “at least 50%”.
For `CC1=NN(c2c(Cl)cc(C(F)(F)F)cc2Cl)C(=O)C12CC=C(c1ccccc1)C[S+]2[O-]` (stereo not drawn) [Compound 12, [1-(2,6-dichloro-4-trifluoromethylphenyl)-3-methylpyrazolin-5-one]-4-spiro-2′-(5′-phenyl-1′-oxo-2′H-3′,6′-dihydrothiane)], the control [3] was “at least 50%”.
